Assay results published in paper PMC11195807, “Development of a multi-targeted chemotherapeutic approach based on G-quadruplex stabilisation and carbonic anhydrase inhibition” (Journal of Enzyme Inhibition and Medicinal Chemistry, 2024).
Like-named read-outs stand apart in the source and are kept apart here.

Legend:
hCA II = target: T1, hCA II (Homo sapiens, UniProt P00918); assay: stopped-flow CO2 hydrase assay, hCA II; assay type: biochemical
T1 construct: made in house
Description: . The structure-activity relationship is discussed separately for the two compound subsets. Another code pattern is included for the MTDLs in Table 1, which indicates the derivative CAI type (sulphonamide, S or coumarin, C) and the number of atoms in the spacers connecting either berberine and the triazole (carbon atoms) or the triazole and the benzenesulfonamide/coumarin scaffolds (carbon or oxygen atoms).
(§1) An Applied Photophysics stopped-flow instrument has been used for assaying the CA-catalysed CO2 hydration activity, as reported earlier. The enzyme concentrations were in the range 5–12 nM. All hCA isoforms were recombinant proteins, being obtained in-house as reported earlier.

hCA I = target: T2, hCA I (Homo sapiens, UniProt P00915); assay: stopped-flow CO2 hydrase assay, hCA I; assay type: biochemical
T2 construct: made in house
Method: as §1

HeLa cells = assay: MTT assay, HeLa cells in normoxia; assay type: cell-based; conditions: for IC50: Homo sapiens
Description: Combining the results on carbonic anhydrase inhibition and GQ thermal stabilisation, we selected the sulphonamides S-2,0, S-4,0, S-5,0 and the coumarins C-3,2, C-4,2, C-5,2 as the most promising MTDLs to be further investigated, since able to both efficiently suppress the activity of the hCAs IX/XII and stabilise GQ structures, in vitro. Moreover, given that crystals suitable for X-ray diffraction analyses had been successfully obtained for the human telomeric DNA GQ in complex with S-3,2, we also included such sulphonamide derivative in the subsequent studies. Thus, we assessed the cytotoxicity of the selected MTDLs on CA IX-positive HeLa cells, using the MTT assay.
HeLa cells were grown in Dulbecco’s Modified Eagle’s Medium supplemented with 10% FBS, 100 U/mL penicillin, and 100 μg/mL streptomycin, at 37 °C, in a 5% CO2/95% air atmosphere. Cells were sub-cultured at 90% confluence, in the split ratio 1:8, every 3–5 days. The MTDLs used in this study, as well as the CAIs S and C, were dissolved in DMSO at 40 mM (for the sulphonamides) or 10 mM (for the coumarins) concentration. As for berberine, a 50 mM stock solution in DMSO was prepared. Each tested compound was diluted in cell culture medium to the required concentration, immediately prior to use. As regards the experiments under hypoxic conditions, an 80 mM stock solution of CoCl2 was prepared in sterile distilled water and further diluted in medium to obtain the final desired concentrations.
For the MTT experiments in the presence of normal oxygen levels, HeLa cells were seeded in 96-well plates at a density of 15,000 cells per well (culture medium volume – 100 μL/well) and incubated at 37 °C, for 24 h. The medium was then removed, and HeLa were incubated, for 48 h, with fresh medium containing increasing concentrations of MTDLs, single-target-directed agents (berberine, S, and C) or vehicle (0.5% DMSO). The MTDL C-4,2 was also tested for 12 h. As for the co-treatments, cells were co-treated for 12 h with equimolar concentrations of berberine and C. As regards the MTT experiments under hypoxic conditions, HeLa cells were seeded in 96-well plates (8,000 cells per well) and incubated overnight, pre-treated with 50 μM cobalt (II) chloride hexahydrate (CoCl2) and then, for the following 12 h, either exposed to increasing concentrations of C-4,2 or vehicle (0.5% DMSO), or co-treated with equimolar concentrations of berberine and C. Each condition was assayed in triplicate. At the end of the treatments, 10 µL of MTT reagent were added to each well, at a final concentration of 0.5 mg/mL, and the plates were incubated at 37 °C for 4 h. To dissolve the resulting purple formazan crystals, 100 μL of the solubilisation solution were added into each well and the plates were allowed to stand overnight in the incubator (37 °C, 5% CO2/95% air). Finally, the optical density of the samples (at 570 nm) was measured on an ELx800 Absorbance Microplate Reader (BioTek Instruments, Inc., Winooski, VT, USA). The percentage (%) of cell survival for each condition was calculated by using the following equation: % cell survival=OD− OD0/ODCONTROL− OD0×100 where OD is the optical density of the sample, OD0 is the optical density of the background signal, and ODCONTROL is the optical density of the control sample (cells treated with vehicle, 0.5% DMSO). The concentration able to reduce by 50% the cellular viability (IC50) was calculated, for each investigated compound, using Prism 8.0.2 (GraphPad, San Diego, CA, USA) and plotting the percentage of cell survival versus the compound concentration (µM).

hCA XII = target: T3, hCA XII (Homo sapiens, UniProt O43570); assay: stopped-flow CO2 hydrase assay, hCA XII; assay type: biochemical; conditions: for Ki: mean ± SEM of three assays; for Selectivity index (SI) I/XII: hCA XII over hCA I; for Selectivity index (SI) II/XII: hCA XII over hCA II
T3 construct: made in house
Description: An Applied Photophysics stopped-flow instrument has been used for assaying the CA-catalysed CO2 hydration activity, as reported earlier. […] All hCA isoforms were recombinant proteins, being obtained in-house as reported earlier.

F-c-Kit1-T GQ = assay: FRET melting competition experiments; assay type: binding; conditions: 2 molar equiv ligand; for ΔT1/2 F-c-Kit1-T + Hairpin (1:15): 15 molar equiv unlabelled Hairpin; for ΔT1/2 F-c-Kit1-T + Hairpin (1:50): 50 molar equiv unlabelled Hairpin; for ΔT1/2 F-c-Kit1-T: no competitor
Description: FRET melting analysis was used to further estimate the GQ over duplex selectivity of the selected compounds[53]. The GQ-forming oligonucleotide c-Kit1 labelled with FAM and TAMRA (F-c-Kit1-T) was employed because, among the parallel GQs used in this study (c-Kit1 and c-Myc), it was the only one with a lower T1/2 than the hairpin DNA duplex competitor (Hairpin), thus allowing proper estimation of the GQ-stabilising properties of the ligands in the presence of a large excess of the unlabelled (non-fluorescent) competitor. […] The sulphonamide S-3,2 was also considered since the crystal structure of such MTDL in complex with Tel23 was successfully obtained. Results of these experiments (Figure S9, Supporting Information and Table 3) confirmed that these compounds are efficient GQ stabilisers.
Measurements were carried out on an FP-8300 spectrofluorometer equipped with a Peltier temperature controller system (PCT-818). The dual-labelled GQ-forming FAM-[d([…])]-TAMRA sequence (F-c-Kit1-T), supplied by biomers.net GmbH (Ulm, Germany), was used for the experiments without further purification. […] The experiments were carried out in sealed quartz cuvettes with a path length of 1 cm, by using 0.2 μM GQ-forming oligonucleotide without or with 0.4 μM of each compound, and the unlabelled competitor (Hairpin) at 0, 3, and 10 μM final concentrations. FRET melting experiments were performed in the range 15–90 °C, with 0.2 °C/min heating rate, by monitoring the emission of FAM at 520 nm (upon excitation at 492 nm). Both excitation and emission slits were set to 5 nm. The emission intensity of FAM was then normalised between 0 and 1. Fluorescence emission spectra were acquired before (at 15 °C) and after (at 90 °C) the melting assay, in the range 500–650 nm, with a 100 nm/s scan speed. Data analysis was performed using OriginPro 2021 software.

[1] = coumarins, inhibitor-enzyme incubation 6 h
[2] = 48 h, normoxia, read-out: IC50 (50% of cell viability reduction), MTT assay
[3] = sulphonamides, inhibitor-enzyme incubation 15 min, mean ± SEM of three assays
[4] = sulphonamides, inhibitor-enzyme incubation 15 min

T3 sequence (O43570 25-354): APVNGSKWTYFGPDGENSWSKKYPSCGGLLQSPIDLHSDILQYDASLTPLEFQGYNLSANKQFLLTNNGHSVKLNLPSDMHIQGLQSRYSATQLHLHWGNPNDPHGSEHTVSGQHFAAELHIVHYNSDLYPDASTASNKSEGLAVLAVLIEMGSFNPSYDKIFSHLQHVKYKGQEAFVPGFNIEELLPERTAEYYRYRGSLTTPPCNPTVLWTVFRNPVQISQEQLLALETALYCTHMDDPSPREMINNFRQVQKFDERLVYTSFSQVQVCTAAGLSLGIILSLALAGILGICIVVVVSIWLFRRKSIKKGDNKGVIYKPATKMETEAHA
T2 sequence (P00915 whole entry): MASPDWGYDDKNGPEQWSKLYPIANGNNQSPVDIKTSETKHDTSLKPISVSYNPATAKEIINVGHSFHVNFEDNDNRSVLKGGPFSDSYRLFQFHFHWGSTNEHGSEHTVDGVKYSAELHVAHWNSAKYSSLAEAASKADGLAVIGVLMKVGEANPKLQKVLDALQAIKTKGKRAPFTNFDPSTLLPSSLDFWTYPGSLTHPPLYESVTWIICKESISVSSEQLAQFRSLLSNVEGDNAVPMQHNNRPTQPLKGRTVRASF

| SMILES | Ki (hCA II; [1]) | Ki (hCA I; [1]) | IC50 (50% of cell viability reduction), MTT assay (HeLa cells; 48 h, normoxia) | IC50 (HeLa cells; [2]) | Ki (hCA XII; [1]) | Selectivity index (SI) I/XII (hCA XII) | Selectivity index (SI) II/XII (hCA XII) | ΔT1/2 F-c-Kit1-T + Hairpin (1:15) (F-c-Kit1-T GQ) | ΔT1/2 F-c-Kit1-T + Hairpin (1:50) (F-c-Kit1-T GQ) | ΔT1/2 F-c-Kit1-T (F-c-Kit1-T GQ) | Ki (hCA II; [3]) | Ki (hCA I; [3]) | reduction in the percentage of cell survival (HeLa cells; 48 h, concentration up to 200 µM) | Ki (hCA XII; [4]) | cytotoxicity compared with co-exposure to equimolar berberine and C (HeLa cells; 12 h, normoxia) | IC50 (HeLa cells; 12 h treatment, normoxia, read-out: IC50, MTT assay) |
| --- | --- | --- | --- | --- | --- | --- | --- | --- | --- | --- | --- | --- | --- | --- | --- | --- |
| COc1ccc2cc3[n+](cc2c1OCCCn1cc(COc2ccc4ccc(=O)oc4c2)nn1)CCc1cc2c(cc1-3)OCO2 [Compound 34, 10-Methoxy-9–(3-(4-(((2-oxo-2H-chromen-7-yl)oxy)methyl)-1H-1,2,3-triazol-1-yl)propoxy)-5,6-dihydro-[1,3]dioxolo[4,5-g]isoquinolino[3,2-a]isoquinolin-7-ium hexafluorophosphate] | > 100000 nM | > 100000 nM | fell outside the explored range of concentrations | > 50 µM | 30.1 ± 1.5 nM | > 332.2 | > 332.2 | 11.4 °C | 11.2 °C | 10.6 °C |  |  |  |  |  |  |
| COc1ccc2cc3[n+](cc2c1OCCCCCn1cc(-c2ccc(S(N)(=O)=O)cc2)nn1)CCc1cc2c(cc1-3)OCO2 [Compound 32, 10-Methoxy-9-((5–(4-(4-sulfamoylphenyl)-1H-1,2,3-triazol-1-yl)pentyl)oxy)-5,6-dihydro-[1,3]dioxolo[4,5-g]isoquinolino[3,2-a]isoquinolin-7-ium hexafluorophosphate] |  |  | fell outside the explored range of concentrations | > 200 µM |  | 31.3 | 0.9 | 15.0 °C | 14.6 °C | 14.4 °C | 15.8 ± 1.2 nM | 574 ± 35.8 nM | around 40% | 18.3 ± 1 nM |  |  |
| COc1ccc2cc3[n+](cc2c1OCCn1cc(-c2ccc(S(N)(=O)=O)cc2)nn1)CCc1cc2c(cc1-3)OCO2 [Compound 26, 10-Methoxy-9–(2-(4–(4-sulfamoylphenyl)-1H-1,2,3-triazol-1-yl)ethoxy)-5,6-dihydro-[1,3]dioxolo[4,5-g]isoquinolino[3,2-a]isoquinolin-7-ium hexafluorophosphate] |  |  | fell outside the explored range of concentrations | > 200 µM |  | 79.5 | 8.1 | 10.2 °C | 12.4 °C | 12.4 °C | 59.4 ± 3.8 nM | 581 ± 32.5 nM |  | 7.3 ± 0.5 nM |  |  |
| COc1ccc2cc3[n+](cc2c1OCCCCn1cc(COc2ccc4ccc(=O)oc4c2)nn1)CCc1cc2c(cc1-3)OCO2 [Compound 37, 10-Methoxy-9–(4-(4-(((2-oxo-2H-chromen-7-yl)oxy)methyl)-1H-1,2,3-triazol-1-yl)butoxy)-5,6-dihydro-[1,3]dioxolo[4,5-g]isoquinolino[3,2-a]isoquinolin-7-ium hexafluorophosphate] | > 100000 nM | > 100000 nM |  | 40 µM | 8.4 ± 0.5 nM | > 1190 | > 1190 | 12.8 °C | 12.6 °C | 12.0 °C |  |  |  |  | greater | 46 µM |
| COc1ccc2cc3[n+](cc2c1OCCCCCn1cc(COc2ccc4ccc(=O)oc4c2)nn1)CCc1cc2c(cc1-3)OCO2 [Compound 39, 10-Methoxy-9-((5–(4-(((2-oxo-2H-chromen-7-yl)oxy)methyl)-1H-1,2,3-triazol-1-yl)pentyl)oxy)-5,6-dihydro-[1,3]dioxolo[4,5-g]isoquinolino[3,2-a]isoquinolin-7-ium hexafluorophosphate] | > 100000 nM | > 100000 nM |  | 37.5 µM | 20.1 ± 1.3 nM | > 497.5 | > 497.5 | 13.2 °C | 14.0 °C | 14.6 °C |  |  |  |  |  |  |
| COc1ccc2cc3[n+](cc2c1OCCCCn1cc(-c2ccc(S(N)(=O)=O)cc2)nn1)CCc1cc2c(cc1-3)OCO2 [Compound 30, 10-Methoxy-9–(4–(4-(4-sulfamoylphenyl)-1H-1,2,3-triazol-1-yl)butoxy)-5,6-dihydro-[1,3]dioxolo[4,5-g]isoquinolino[3,2-a]isoquinolin-7-ium hexafluorophosphate] |  |  |  | 35 µM |  | 23.2 | 2.2 | 13.8 °C | 12.6 °C | 13.6 °C | 55.1 ± 3.8 nM | 592 ± 36.3 nM |  | 25.5 ± 1.4 nM |  |  |
| COc1ccc2cc3[n+](cc2c1OCCCn1cc(COc2ccc(S(N)(=O)=O)cc2)nn1)CCc1cc2c(cc1-3)OCO2 [Compound 29, 10-Methoxy-9–(3-(4-((4-sulfamoylphenoxy)methyl)-1H-1,2,3-triazol-1-yl)propoxy)-5,6-dihydro-[1,3]dioxolo[4,5-g]isoquinolino[3,2-a]isoquinolin-7-ium hexafluorophosphate] |  |  | fell outside the explored range of concentrations | > 200 µM |  | 25.8 | 2.0 | 12.8 °C | 13.2 °C | 13.2 °C | 62.3 ± 4.7 nM | 805 ± 60.8 nM |  | 31.2 ± 2.5 nM |  |  |
